Results: patent publication US20240180888A1, “C5AR1 INHIBITORS FOR TREATING […] REACTIONS TO TAXANES” (Dompe' Farmaceutici SPA, priority 2021, published 2024)

T1: complement component 5a (Homo sapiens, UniProt P01031)
T1 sequence (P01031 678-751 limits assumed): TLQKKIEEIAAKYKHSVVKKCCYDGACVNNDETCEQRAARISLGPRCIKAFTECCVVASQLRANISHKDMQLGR

B1: C5a: anaphylatoxin, pro-inflammatory polypeptide, the natural ligand of the receptor C5aR1 (protein, UniProt P01031 678-751, looked up)
C5a anaphylatoxin: T1 sequence (P01031 678-751 limits assumed)
modifications: C5a anaphylatoxin
notes: anaphylatoxin, pro-inflammatory polypeptide, the natural ligand of the receptor C5aR1

How the values were obtained:
[1] = target: T1, complement component 5a; test: BIAcore SPR binding to C5a immobilised on sensorchip CM5; details: 300 microM in Running Buffer
From the text: BIAcore technology was used to analyze the interaction between Paclitaxel and complement component 5a receptor 1 (C5aR1) (Example 1), complement component 5a receptor 2 (C5AR2) (Example 2) or complement component 5a (Example 3).
The BIAcore systems exploit the phenomenon of Surface Plasmon Resonance (SPR) to monitor interactions between molecules in real time. Briefly, SPR phenomenon occurs in thin conducting films at an interface between media of different refractive index. In BIAcore systems, the media are the glass of the sensorchip and the sample solution, and the conducting film is a thin layer of gold on the sensorchip surface. BIAcore monitors the interaction between two molecules, one attached to the sensor surface, called ligand, and the other one free in solution, and called analyte.
C5a was immobilized on a sensorchip (#29149604, Cytiva). In details, 20 microg/ml of recombinant protein C5a was diluted in 10 mM acetate buffer at pH 4.5 and injected over the surface of the sensorchip. Activation and deactivation of sensorchip were performed as described in Example 1a).
Paclitaxel was injected on the C5A surface of the sensorchip prepared in Example 2a) at a concentration of 300 microM in Running Buffer.RU can be detected by BIAcore.

[2] = test system: RAW 264.7 mouse macrophages; test: Proteome profiler cytokine release assay in RAW 264.7 macrophages; assay type: cell-based; details: 10 nM, 24 h; for proteome profile of cytokines released: murine
Procedure: RAW 264.7 (ATTC TIB-71) mouse macrophages were cultured following manufacturer's instructions using DMEM medium (Euroclone, MI, Italy) supplemented with 10% FBS (non-heat inactivated) (ATCC, USA) at 37° C., in a humidified 95% air-5% CO2 atmosphere and then were seeded at 1*10^4 cells/cm^2.
After 24 hours, cells were treated with C5a (diluted in medium) (10 nM, R&D, USA), Paclitaxel (diluted in medium) (10 nM, Sigma, USA) in the absence and in the presence of the C5a inhibitor DF3966A (10 μM), and anti C5aR Ab (BioLegend, CA, USA; 50 nM) or Avacopan (10 μM) for 24 hours, then the media was replaced with culture media (5 ml) for 24 h and then collected.
Conditioned media were centrifugated to remove particulates and assayed immediately. […] The reagents were prepared following manufacturer's protocols (R&D, USA). Briefly, the membranes were incubated with Array Buffer 6 for 1 hour on a rocking platform shaker. The samples were prepared by adding up to 1 ml of Array Buffer 4 in two separated tubes and then 15 microl of reconstituted mouse cytokine detection antibody cocktail (>40 mouse cytokines) to each prepared sample and incubated 1 hour. Then, the Array Buffer 6 was aspirated and replaced with the sample/antibody mixtures and incubated at 4° C. overnight. The following day, membranes were washed 3 times and Streptavidin-HRP (1:2000) was incubated for 30 minutes at room temperature on a rocking platform shaker. The membranes were washed again, and 1 ml of prepared Chemi Reagent mix was placed onto each membrane. Multiple exposure times were acquired using UVITEC digital analyzer (Alliance, Cambridge, UK).
The positive signals seen in the developed membranes can be identified by placing the transparency overlay template on the array image and aligning it with pairs of reference spots in the three corners of each array (see FIG. 10). […] Pixel densities (average signals of pair of duplicates which represent each cytokine) were analyzed by ImageJ and the average background was subtracted from each spot.
In details, the profiling of cytokines released (>40 cytokines) from RAW 264.7 and human macrophages challenged with paclitaxel (Sigma-Aldrich; 10 nM) or C5a (R&D Systems, Inc. MN, USA; 10 nM) for 24 h using a proteome profiler assay. […] The experimental assay is explained in example 4.
For the human macrophages, human XL Cytokine Array kit #Ary022B was used, while for murine macrophages mouse cytokine Array Panel A #Ary006 was used (R&D systems, USA).

[3] = test system: F11 hybridoma cells; test: Real Time PCR for IL-8 mRNA expression in differentiated F11 cells; assay type: cell-based; details: 20 h; 10 nM Paclitaxel or 50 nM C5a
Procedure: F11 hybridoma cells (ECACC 08062601), chosen as an alternative model of DRG neurons were cultured in DMEM medium (Euroclone, MI, Italy) supplemented with 10% FBS (Sigma-Aldrich St. Louis, CO, USA), 1% penicillin/streptomycin (Euroclone) and 1% glutamine (Euroclone) at 37° C., in a humidified 95% air-5% CO2 atmosphere. For the experiments, cells were used at 18th passage and seeded at 1×10^4 cells/cm2. After 24 h, cells were differentiated with rat NGF (rNGF) (Sigma). rNGF was dissolved in DMEM with 1% penicillin/streptomycin and 1% glutamine (FBS free) at the final concentration 50 ng/ml. The medium was replaced every 3 days until complete differentiation, which happened after 7 days. […]
For gene expression analysis, the following protocol was used: total RNA was extracted by Trizol reagent, according to the manufacturer's instructions. The total RNA concentration was determined spectrophotometrically in RNAase-free water, and 1 μg aliquots of total RNA were reverse-transcripted into cDNA using ProtoScript First Strand cDNA Synthesis Kit (NEB). […] Relative expression levels were calculated for each sample after normalization against reference gene, using the ΔΔCt method for comparing relative fold expression differences, as previously described [Livak et al., 2001 DOI: 10.1006/meth.2001.1262]. […]

Molecule | binding to immobilised C5a [1] | levels of MCP-1, MIP-1α, MIP-1β, MIP-2 and ID Ra compared to the control group [2] | proteome profile of cytokines released [2] | IL-8 relative mRNA expression [3]
CC(=O)O[C@H]1C(=O)[C@@]2(C)[C@H]([C@H](OC(=O)c3ccccc3)[C@]3(O)C[C@H](OC(=O)[C@H](O)[C@@H](NC(=O)c4ccccc4)c4ccccc4)C(C)=C1C3(C)C)[C@]1(OC(C)=O)CO[C@@H]1C[C@@H]2O [Paclitaxel] | not able to bind | significantly increased | resembled that of typical anaphylaxis | increase IL-8 expression levels
B1 |  | significantly increased | resembled that of typical anaphylaxis | increases IL-8 expression levels
